The results in this text go back to patent US5079263A, “Manumycin derivatives and the use thereof” (Behringwerke Aktiengesellschaft, priority 1987, dated 1992).

Usually IC50 stands for the concentration needed to halve the response being measured.

The assay concerns the target T1, PMN elastase (Homo sapiens, UniProt P08246).
T1 construct: The elastase was isolated from human leukocytes; from tissue; host or cells: human leukocytes
T1 sequence (P08246 30-247 limits assumed): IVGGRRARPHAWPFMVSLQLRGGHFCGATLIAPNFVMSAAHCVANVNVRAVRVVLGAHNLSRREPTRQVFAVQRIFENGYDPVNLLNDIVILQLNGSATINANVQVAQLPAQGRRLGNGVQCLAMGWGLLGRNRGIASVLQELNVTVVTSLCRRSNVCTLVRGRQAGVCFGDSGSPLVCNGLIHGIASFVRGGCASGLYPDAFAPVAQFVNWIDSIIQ
Kind of assay: Assay for Elastase from Polymorphonuclear Granulocytes (PMN Elastase). It is filed as biochemical. The arrangement: key to inhibiting effect in PMN elastase assay (inactive): Substances which showed no inhibiting effect at the maximum concentration of 100 μg/ml were defined as inactive. The settings on record: for IC50: 1 hour preincubation with enzyme, substrate MeO-Suc-Ala-Ala-Pro-Val-pNA, 15 minutes, 405 nm, maximum 100 μg/ml, read-out: IC50 (inhibiting effect on PMN elastase) (converted); for inhibiting effect on PMN elastase, comparison in words: compared with manumycin / compounds (1) to (3). As for the experimental part:
The elastase was isolated from human leukocytes by the method described by Engelbrecht et al. (Hoppe-Seyler's Physiol. Chem. 363, pp. 305-315, 1982). The substrate used was the MeO-Suc-[…] (Calbiochem) described by Nakajima et al. (J. Biol. Chem. 254, pp. 4027-4032, 1979). The Liberation of the p-nitroaniline from the substrate in 15 minutes was measured as the increase in absorption at 405 nm in a spectrophotometer. This absorption was defined as 100% activity of the enzyme PMN elastase. The inhibitors of PMN elastase were preincubated in increasing concentrations up to a maximum of 100 μg/ml with the enzyme for 1 hour, and the enzyme reaction was started with the substrate. The IC50 was defined as that inhibitor concentration which inhibits 50% of the enzyme activity.

Molecules are shown by their SMILES.

Take `CCCC[C@@H](C)/C=C(C)/C=C(\C)C(=O)Nc1cc(/C=C/C=C/C=C/C(=O)NC2=C(O)CCC2=O)c(O)cc1O` [Compound (1)]: the “inhibition of leukocyte elastase, in words” value (from here on “inhibition”) is “inhibit leukocyte elastase” and the IC50 was 4.68 µM.

With `CCCC[C@@H](C)/C=C(C)/C=C(\C)C(=O)Nc1cc(/C=C/C=C/C=C/C(=O)NC2=C(O)CCC2=O)ccc1O` [Compound (2)], the “inhibition” value is “inhibit leukocyte elastase” and the IC50 is 5.98 µM.

In the case of `CCCC[C@@H](C)/C=C(C)/C=C(\C)C(=O)Nc1cccc(/C=C/C=C/C=C/C(=O)NC2=C(O)CCC2=O)c1` [Compound (3)], the “inhibition” value is reported as “inhibit leukocyte elastase” and the half-inhibitory concentration (IC50) was 7.16 µM.

As to `Nc1cccc(/C=C/C=C/C=C/C(=O)NC2=C(O)CCC2=O)c1` [Compound (4)], the “inhibiting effect in PMN elastase assay (inactive)” value (maximum concentration 100 μg/ml, "--" in Table 2) was “inactive”.

As to `Nc1ccc(/C=C/C=C/C=C/C(=O)NC2=C(O)CCC2=O)cc1` [Compound (5)], the “inhibition” value is “inhibit leukocyte elastase”; the IC50 was 135 µM; the “inhibiting effect on PMN elastase, comparison in words” value is on record as “distinctly weaker inhibiting effect”.

With `CCCCC(C)C=C(C)C=C(C)C(=O)NC1=CC(O)(C=CC=CC=CC(=O)NC2=C(O)CCC2=O)C2OC2C1=O` (stereo not drawn) [Manumycin, manumycin], the IC50 was 7.99 µM and the “inhibiting effect on PMN elastase, comparison in words” value was “comparable to that of the compounds (1) to (3)”.
